Where two headings read alike, the source gives them in different places.
How the values were obtained:
Assay type in all cases: cell-based
TPC2 [1] = molecular target: T1, TPC2 (Mus musculus, UniProt Q8BWC0); assay: endo-lysosomal patch-clamp, […], with TPC2 KO control; set-up: gene Tpcn2; mTPC2; endogenous TPC2 in alveolar macrophages
TPC2 [2] = molecular target: T2, TPC2 (Homo sapiens, UniProt Q8NHX9); assay: endo-lysosomal patch-clamp (also FLIPR Ca2+ assay, EC50 […])
T2 construct: gene TPCN2; hTPC2, C-terminal YFP
T2 sequence (Q8NHX9 whole entry): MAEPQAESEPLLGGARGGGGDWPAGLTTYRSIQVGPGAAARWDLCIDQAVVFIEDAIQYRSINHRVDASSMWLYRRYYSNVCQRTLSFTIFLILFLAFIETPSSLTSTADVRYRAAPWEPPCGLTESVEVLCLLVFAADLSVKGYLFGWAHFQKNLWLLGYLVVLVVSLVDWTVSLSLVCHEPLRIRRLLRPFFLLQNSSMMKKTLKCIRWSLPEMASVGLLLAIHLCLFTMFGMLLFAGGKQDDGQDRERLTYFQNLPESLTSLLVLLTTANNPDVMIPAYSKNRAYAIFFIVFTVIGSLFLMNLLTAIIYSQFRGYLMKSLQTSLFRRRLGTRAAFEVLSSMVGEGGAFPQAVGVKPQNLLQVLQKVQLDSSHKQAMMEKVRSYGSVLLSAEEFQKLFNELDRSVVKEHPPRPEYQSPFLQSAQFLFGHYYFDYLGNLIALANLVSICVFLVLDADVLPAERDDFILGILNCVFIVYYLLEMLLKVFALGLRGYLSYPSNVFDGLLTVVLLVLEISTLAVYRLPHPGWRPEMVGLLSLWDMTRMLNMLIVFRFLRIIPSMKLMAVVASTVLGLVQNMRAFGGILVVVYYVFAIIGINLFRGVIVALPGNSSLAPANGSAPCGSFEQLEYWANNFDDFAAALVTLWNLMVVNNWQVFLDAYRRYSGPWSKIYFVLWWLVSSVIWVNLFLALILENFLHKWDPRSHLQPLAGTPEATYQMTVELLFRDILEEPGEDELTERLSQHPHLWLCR

TPC2 [3] = molecular target: T3, TPC2 (Homo sapiens, UniProt Q8NHX9, L11A/L12A); assay: Fura-2 Ca2+ imaging, block of TPC2-A1-N response at […]
T3 construct: gene TPCN2; hTPC2^L11A/L12A (plasma membrane targeted)
T3 sequence (Q8NHX9 whole entry L11A/L12A): as the sequence (Q8NHX9 whole entry) above, with L11A, L12A counted along it

TPC2 [4] = molecular target: T2, TPC2; assay: endo-lysosomal patch-clamp (also FLIPR Ca2+ assay, EC50 […]); remark: listed apart in the source
TPC2 [5] = molecular target: T1, TPC2; assay: GCaMP Ca2+ imaging and endo-lysosomal patch-clamp, […]; set-up: gene Tpcn2; MmTPC2-GCaMP6s; mTPC2

T1 sequence (Q8BWC0 whole entry): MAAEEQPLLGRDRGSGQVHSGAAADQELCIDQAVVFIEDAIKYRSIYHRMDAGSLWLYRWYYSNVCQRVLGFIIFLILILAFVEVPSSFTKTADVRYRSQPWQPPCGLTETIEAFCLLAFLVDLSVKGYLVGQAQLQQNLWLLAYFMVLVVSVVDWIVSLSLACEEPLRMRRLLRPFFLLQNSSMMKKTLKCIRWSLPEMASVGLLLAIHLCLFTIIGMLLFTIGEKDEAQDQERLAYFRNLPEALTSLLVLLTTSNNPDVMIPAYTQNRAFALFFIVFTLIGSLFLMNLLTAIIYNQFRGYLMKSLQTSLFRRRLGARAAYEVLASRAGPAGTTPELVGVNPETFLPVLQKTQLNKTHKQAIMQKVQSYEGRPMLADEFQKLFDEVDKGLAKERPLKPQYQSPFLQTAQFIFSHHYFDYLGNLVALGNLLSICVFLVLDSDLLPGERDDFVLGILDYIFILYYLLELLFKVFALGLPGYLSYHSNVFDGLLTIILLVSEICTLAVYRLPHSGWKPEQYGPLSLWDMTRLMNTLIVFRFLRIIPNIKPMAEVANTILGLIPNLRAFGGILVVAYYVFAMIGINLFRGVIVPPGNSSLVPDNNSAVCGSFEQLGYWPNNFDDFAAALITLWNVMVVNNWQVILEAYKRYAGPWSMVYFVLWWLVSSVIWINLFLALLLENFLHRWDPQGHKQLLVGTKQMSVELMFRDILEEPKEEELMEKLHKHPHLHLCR

## Cc1c(C(=O)O)cc(-c2cc(Br)ccc2OC(F)(F)F)n1CC1CCCCC1 [TPC2-A1-P, 5-(5-Bromo-2-(trifluoromethoxy)phenyl)−1-(cyclohexylmethyl)−2-methyl-1H-pyrrole-3-carboxylic acid]
TPC2 [1]
  endo-lysosomal patch-clamp, 10 μM, with TPC2 KO control: both TPC2-A1-N and TPC2-A1-P evoked measurable endogenous TPC2-like currents in macrophages from wild-type animals
TPC2 [2]
  EC50: 600 nM

## OCCN1CCN(CCCN2c3ccccc3Sc3ccc(C(F)(F)F)cc32)CC1 [Flu, fluphenazine]
TPC2 [3]
  Fura-2 Ca2+ imaging, block of TPC2-A1-N response at 10 μM: responses to TPC2-A1-N were selectively blocked by the recently identified TPC2 blockers tetrandrine (Tet), raloxifene (Ral), and fluphenazine (Flu)

## N#CC(C(=O)Nc1ccc(C(F)(F)F)cc1)=C(O)c1cc(Cl)cc(Cl)c1 [TPC2-A1-N, 2-Cyano-3-(3,5-dichlorophenyl)−3-hydroxy-N-(4-(trifluoromethyl)phenyl)acrylamide]
TPC2 [4]
  EC50: 600 nM
TPC2 [5]
  GCaMP Ca2+ imaging and endo-lysosomal patch-clamp, 10 μM: mouse TPC2 fused to GCaMP6 (MmTPC2^GCaMP) confirmed that TPC2-A1-N evoked larger responses than TPC2-A1-P

## O=C(c1ccc(OCCN2CCCCC2)cc1)c1c(-c2ccc(O)cc2)sc2cc(O)ccc12 [Ral, raloxifene]
TPC2 [3]
  Fura-2 Ca2+ imaging, block of TPC2-A1-N response at 10 μM: responses to TPC2-A1-N were selectively blocked by the recently identified TPC2 blockers tetrandrine (Tet), raloxifene (Ral), and fluphenazine (Flu)

## COc1ccc2cc1Oc1ccc(cc1)C[C@H]1c3cc(c(OC)cc3CCN1C)Oc1c(OC)c(OC)cc3c1[C@H](C2)N(C)CC3 [Tet, tetrandrine]
TPC2 [3]
  Fura-2 Ca2+ imaging, block of TPC2-A1-N response at 10 μM: responses to TPC2-A1-N were selectively blocked by the recently identified TPC2 blockers tetrandrine (Tet), raloxifene (Ral), and fluphenazine (Flu)

From article PMC7108868, “Agonist-mediated switching of ion selectivity in TPC2 differentially promotes lysosomal function” (eLife, 2020)
